Data set [1] has as its system PMA-induced dermatitis (ear). Format: in vivo, CD-1 mice. The source says: FIGS. 10A and 10B are a series of images and a graph showing efficacy of topical anti-IL-23R peptides in treating PMA-induced dermatitis. PMA-induced dermatitis is often utilized as a model of chronic (and scaling) dermatitis, reminiscent of psoriatic dermatitis. […] FIG. 10B is a graph showing the differences in weight (mg) of ear punches with control ears untreated with PMA. […] FIGS. 11A to 11C are a series of images and graphs showing dose-response to topical administration of peptide 2309 in PMA-induced dermatitis. FIG. 11A is a photographic representation of dose-dependent effects of topical administration of peptide 2309 (mixed in PEG-400) on PMA-induced dermatitis in CD-1 mice. Concentrations of peptide 2309≧100 nM show significant efficacy.

The subject of data set [2] is PMA-induced dermatitis (ear). Put plainly: PMA-induced dermatitis, intraperitoneal injection. The class given is in vivo, CD-1 mice. As to conditions: intraperitoneal injection (0.1-1 mg/kg/day). As for the experimental part: FIG. 12 is a series of images and graphs showing the effect of intraperitoneal injection of the 2309 peptide on PMA-induced dermatitis. On day 1, 10 μl of a 0.01% solution of PMA (v/v in acetone) was applied on the external and internal surfaces of the left ear of CD-1 mice (images in left column). Twenty-four hours later, different doses of the 2309 peptide were injected intraperitoneally (0.1 mg/kg/day; 0.5 mg/kg/day; 1 mg/kg/day bid; n=4 for each group treatment). Animals were sacrificed on day 4 (6 hours after the last 2309 injection). The weight (right column, top graph) and thickness (right column, bottom graph) of all ear punches were then determined and the peptide-treated ears with PMA were compared to PMA-only ears.

The target in data set [3] is T1, IL-23R (Mus musculus, UniProt Q8K4B4).
T1 construct: Spleens were sterilely removed from mice, sliced, and mashed in the presence of PBS buffer; from tissue; host or cells: mouse spleen: freshly isolated splenocytes, and CD4+ cells differentiated into TH17 cells
T1 sequence (Q8K4B4 24-644): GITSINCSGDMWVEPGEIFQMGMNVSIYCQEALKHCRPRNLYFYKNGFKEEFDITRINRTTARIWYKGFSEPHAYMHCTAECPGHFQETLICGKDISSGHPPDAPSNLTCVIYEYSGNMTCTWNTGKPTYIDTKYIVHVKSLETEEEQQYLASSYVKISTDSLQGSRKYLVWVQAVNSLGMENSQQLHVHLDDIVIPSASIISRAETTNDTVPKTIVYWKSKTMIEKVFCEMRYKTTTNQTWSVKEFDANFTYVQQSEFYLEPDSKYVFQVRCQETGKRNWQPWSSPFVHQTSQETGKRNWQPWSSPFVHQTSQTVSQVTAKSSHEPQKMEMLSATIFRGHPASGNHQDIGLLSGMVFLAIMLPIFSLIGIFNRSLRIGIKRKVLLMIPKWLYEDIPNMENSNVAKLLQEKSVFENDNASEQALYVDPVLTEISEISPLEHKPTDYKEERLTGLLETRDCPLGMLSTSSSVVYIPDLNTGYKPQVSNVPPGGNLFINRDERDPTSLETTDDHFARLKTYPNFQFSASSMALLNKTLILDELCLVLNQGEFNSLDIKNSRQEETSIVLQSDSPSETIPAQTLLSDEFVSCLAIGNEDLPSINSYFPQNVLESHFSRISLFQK
The data set is described as follows: IL-23-induced STAT3 phosphorylation in freshly isolated splenocytes (Alpha Screen SureFire p-STAT-3). Format: cell-based. The settings on record: freshly isolated splenocytes; listed as APG-2309. Here is the method: Spleens were sterilely removed from mice, sliced, and mashed in the presence of PBS buffer, 2% fetal bovine serum, and 1 mM EDTA. Tissue was allowed to pass through a number 26 syringe and was filtered through a 70 μm mesh nylon strainer. Cells were cultured with non-essential amino acids, 2 μg/ml of anti-CD3, and 20 μg/ml of anti-CD-28 as survival and differentiation factors.
(§1) Splenocytes or TH17 cells were distributed in 384-well plates (Optiplate; Perkin Elmer) (100,000 cells/well). Cells were pre-incubated for 30 minutes with different concentrations of peptide APG-2305 or APG-2309 and incubated with 25 ng/ml of IL-23 (R&D systems) for 10 minutes. STAT3 phosphorylation was determined with the kit Alpha Screen SureFire p-STAT-3 assay from Perkin Elmer according to manufacturer's instructions. Briefly, after incubation with IL-23, cells were lysed and contacted with (1) protein A acceptor conjugated beads coated with anti-p-STAT-3 (Tyr705) and (2) streptavidin-coated donor beads. The resulting signal was measured with a Perkin Elmer Wallac En vision 2104 Multilabel reader. Graphs were generated using GraphPrism 4 software.
The effect of peptide APG-2305 and APG-2309 derivatives on IL-23-induced STAT3 phosphorylation was determined using CD-1 mice freshly isolated splenocytes and the Alpha Screen p-STAT3 assay (see above materials and methods) (FIGS. 6 and 7). […] As described herein, based on the efficacy of derivatives, we have identified regions in APG-2305 and APG-2309 peptides that are important for their ability to affect IL-23R activity.

In data set [4] the target is T1, IL-23R. Put plainly: IL-23-induced STAT3 phosphorylation in differentiated TH17 cells (Alpha Screen SureFire p-STAT-3). The class given is cell-based. As to conditions: listed as APG-2309. As for the experimental part: CD4+ cells were isolated from 2.5×10^8 splenocytes with the EasySep isolation kit (StemCell Technologies) according to the manufacturer's instructions. CD4+ cells were incubated overnight with non-essential amino acids and anti-CD3 and CD28 antibodies (see above). The next day the cells were split into 12-well plates (1-2×10^6 cells/well) and incubated with complete RPMI medium (10% FBS, Pen/Strep, and non-essential amino acids (1×)) and a differentiation cocktail containing 2 μg/ml of anti-CD3, 2 μg/ml of anti-CD28, 5 ng/ml of TGFb1, 20 ng/ml of IL-6, 10 ng/ml of IL-23, 2 μg/ml of anti-rat anti IFNγ and 10 μg/ml of anti-mouse IL-4 (final concentrations).
as §1, with “Graphs were generated using GraphPrism 4 software.” left out

pEC50: −log10 of the molar value. Entries after “also recorded” stand apart in the source; their conditions may differ. Peptide text beside a SMILES is read from it.

Usually pEC50 stands for the negative decadic logarithm of the EC50, by convention in mol/L. A high value points to a low EC50. For the compound `CSCC[C@@H](N)C(=O)N[C@H](CCC(=O)O)C(=O)N[C@H](CCC(=O)O)C(=O)N[C@H](CO)C(=O)N[C@H](CCCCN)C(=O)N[C@H](CCC(N)=O)C(=O)N[C@H](CC(C)C)C(=O)N[C@H](CCC(N)=O)C(=O)N[C@H](CC(C)C)C(=O)O` [Peptide 2309, MEESKQLQL] (HELM PEPTIDE1{[dM].[dE].[dE].[dS].[dK].[dQ].[dL].[dQ].[dL]}$$$$V2.0; N-terminus and C-terminus assumed), in data set [1] (mouse, in vivo), the pEC50 was approximately 7.30 and the transdermal penetration entry is listed as “effective transdermal penetration”. Also, in data set [1] (topical dose-response (FIG. 11B)), the “PMA-induced edema (weight of ear punches)” value is “dose-dependent reduction in PMA-induced edema”. Also, the “capillary leak (Evan's blue technique)” value in data set [1] (topical dose-response (FIG. 11C)) is “diminished capillary leak”. The “concentrations showing significant efficacy” value in data set [1] (topical in PEG-400 (FIG. 11A)) was not below 100 nM. Moreover, the “redness and ear weight” value in data set [2] was “able to treat PMA-induced dermatitis as evidenced by a decrease in redness and ear weight”. The “effect on IL-23-induced STAT3 phosphorylation” value at IL-23R [3] is “inhibit; also recorded: showed efficacy”. Moreover, the “effect on IL-23-induced STAT3 phosphorylation” value at IL-23R [4] is listed as “inhibit; also recorded: showed efficacy”.

The record behind these values is patent US20100190710A1, “IL-23 RECEPTOR ANTAGONISTS AND USES THEREOF” (Valorisation HSJ, Societe en Commandite, priority 2007, published 2010).
